Reference: patent US12692269B2, “Therapeutic compounds” (Genentech, Inc., priority 2019, dated 2026)

Tests used:
Assay type in all cases: binding
TEAD1 YAP50-100 = TEAD1 YAP50-100 (Homo sapiens, UniProt P28347); assay: TEAD1-YAP HTRF (TR-FRET) protein-protein interaction assay; conditions: TEAD1, YAP peptide 50-100, HTRF; for EC50: read-out: TEAD1 YAP50-100 HTRF combined: EC50
Method in brief: (§1)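 Compounds were first allowed 30 min to bind Eu-antibody-tagged His-TEAD (YAP-binding domain, aa 217-447). Biotinylated YAP 50-100 or TAZ 13-57 peptide complexed with streptavidin-XL665 was then added for 60 min at room temperature, and loss of TR-FRET signal gave IC50 or EC50 values.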

TEAD2 YAP50-100 = TEAD2 YAP50-100 (Homo sapiens, UniProt Q15562); assay: TEAD2-YAP HTRF (TR-FRET) protein-protein interaction assay; conditions: TEAD2, YAP peptide 50-100, HTRF; for EC50: read-out: TEAD2 YAP50-100 HTRF combined: EC50
Sequence of TEAD2 YAP50-100 (Q15562 217-447): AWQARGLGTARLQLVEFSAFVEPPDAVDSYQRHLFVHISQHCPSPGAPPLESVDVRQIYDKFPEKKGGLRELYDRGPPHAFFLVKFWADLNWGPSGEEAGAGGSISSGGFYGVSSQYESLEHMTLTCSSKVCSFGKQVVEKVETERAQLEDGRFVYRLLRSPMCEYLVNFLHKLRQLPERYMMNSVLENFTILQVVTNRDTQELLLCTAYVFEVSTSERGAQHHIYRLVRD
Method in brief: as §1

TEAD3 YAP50-100 = TEAD3 YAP50-100 (Homo sapiens, UniProt Q99594); assay: TEAD3-YAP HTRF (TR-FRET) protein-protein interaction assay; conditions: TEAD3, YAP peptide 50-100, HTRF; for EC50: read-out: TEAD3 YAP50-100 HTRF combined: EC50
Sequence of TEAD3 YAP50-100 (Q99594 173-435 limits assumed): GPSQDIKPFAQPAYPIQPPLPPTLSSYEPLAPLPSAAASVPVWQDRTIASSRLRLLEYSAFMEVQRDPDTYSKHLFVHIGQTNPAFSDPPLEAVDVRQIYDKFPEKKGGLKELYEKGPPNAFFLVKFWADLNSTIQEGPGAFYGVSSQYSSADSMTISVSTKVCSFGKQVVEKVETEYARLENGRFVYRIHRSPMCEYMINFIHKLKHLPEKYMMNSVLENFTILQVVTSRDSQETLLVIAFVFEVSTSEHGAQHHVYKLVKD
Method in brief: as §1

TEAD4 YAP50-100 = TEAD4 YAP50-100 (Homo sapiens, UniProt Q15561); assay: TEAD4-YAP HTRF (TR-FRET) protein-protein interaction assay; conditions: TEAD4, YAP peptide 50-100, HTRF; for EC50: read-out: TEAD4 YAP50-100 HTRF combined: EC50
Sequence of TEAD4 YAP50-100 (Q15561 217-434 limits assumed): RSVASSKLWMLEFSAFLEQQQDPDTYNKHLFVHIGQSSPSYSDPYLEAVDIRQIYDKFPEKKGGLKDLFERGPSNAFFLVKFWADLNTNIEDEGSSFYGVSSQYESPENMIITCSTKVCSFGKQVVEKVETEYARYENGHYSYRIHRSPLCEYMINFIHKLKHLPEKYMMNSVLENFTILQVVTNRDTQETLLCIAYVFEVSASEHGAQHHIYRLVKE
Method in brief: as §1

[1] = target: TEAD1 TAZ (amino acids 13-57) (Homo sapiens, UniProt P28347); assay: TEAD1-TAZ HTRF (TR-FRET) protein-protein interaction assay; conditions: for TEAD1 TAZ HTRF combined: Max % Inhibition: TEAD1, TAZ peptide; for EC50: TEAD1-TAZ HTRF, TR-FRET 665 nm/615 nm, read-out: TEAD1 TAZ HTRF combined: EC50
Sequence of TEAD1 TAZ (amino acids 13-57) (P28347 167-426 limits assumed): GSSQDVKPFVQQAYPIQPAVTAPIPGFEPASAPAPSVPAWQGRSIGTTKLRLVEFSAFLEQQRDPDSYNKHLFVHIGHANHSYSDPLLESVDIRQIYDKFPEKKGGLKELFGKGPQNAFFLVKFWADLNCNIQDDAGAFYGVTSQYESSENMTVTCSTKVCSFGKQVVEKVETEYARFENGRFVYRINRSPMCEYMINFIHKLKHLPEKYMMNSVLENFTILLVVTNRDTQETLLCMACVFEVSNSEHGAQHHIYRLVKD
Method in brief: as §1

[2] = target: TEAD2 TAZ (amino acids 13-57) (Homo sapiens, UniProt Q15562); assay: TEAD2-TAZ HTRF (TR-FRET) protein-protein interaction assay; conditions: for TEAD2 TAZ HTRF combined: Max % Inhibition: TEAD2, TAZ peptide; for EC50: TEAD2-TAZ HTRF, TR-FRET 665 nm/615 nm, read-out: TEAD2 TAZ HTRF combined: EC50
Sequence of TEAD2 TAZ (amino acids 13-57) (Q15562 217-447): as the sequence (Q15562 217-447) above
Method in brief: as §1

[3] = target: TEAD3 TAZ (amino acids 13-57) (Homo sapiens, UniProt Q99594); assay: TEAD3-TAZ HTRF (TR-FRET) protein-protein interaction assay; conditions: for TEAD3 TAZ HTRF combined: Max % Inhibition: TEAD3, TAZ peptide; for EC50: TEAD3-TAZ HTRF, TR-FRET 665 nm/615 nm, read-out: TEAD3 TAZ HTRF combined: EC50
Sequence of TEAD3 TAZ (amino acids 13-57) (Q99594 173-435 limits assumed): as the sequence (Q99594 173-435 limits assumed) above
Method in brief: as §1

[4] = target: TEAD4 TAZ (amino acids 13-57) (Homo sapiens, UniProt Q15561); assay: TEAD4-TAZ HTRF (TR-FRET) protein-protein interaction assay; conditions: for TEAD4 TAZ HTRF combined: Max % Inhibition: TEAD4, TAZ peptide; for EC50: TEAD4-TAZ HTRF, TR-FRET 665 nm/615 nm, read-out: TEAD4 TAZ HTRF combined: EC50
Sequence of TEAD4 TAZ (amino acids 13-57) (Q15561 217-434 limits assumed): as the sequence (Q15561 217-434 limits assumed) above
Method in brief: as §1

Sequence of TEAD1 YAP50-100 (P28347 167-426 limits assumed): as the sequence (P28347 167-426 limits assumed) above

## N#Cc1nccnc1-c1nn2c(=O)cc(-c3ccc(C4CCCCC4)cc3)[nH]c2c1C(=O)N1CC(CF)C1 [Compound 8, 3-(5-(4-Cyclohexylphenyl)-3-(3-(fluoromethyl)azetidine-1-carbonyl)-7-oxo-4,7-dihydropyrazolo[1,5-a]pyimidin-2-yl)pyrazine-2-carbonitrile]
TEAD1 YAP50-100
  TEAD1 YAP50-100 HTRF combined: Max % Inhibition: 77.0%
  EC50: 80 nM
TEAD2 YAP50-100
  TEAD2 YAP50-100 HTRF combined: Max % Inhibition: 51.0%
  EC50: 20 nM
TEAD3 YAP50-100
  TEAD3 YAP50-100 HTRF combined: Max % Inhibition: 69.5%
  EC50: 110 nM
TEAD4 YAP50-100
  TEAD4 YAP50-100 HTRF combined: Max % Inhibition: 45.5%
  EC50: 470 nM
[1]
  TEAD1 TAZ HTRF combined: Max % Inhibition: 71.0%
  EC50: 110 nM
[2]
  TEAD2 TAZ HTRF combined: Max % Inhibition: 54.0%
  EC50: 20 nM
[3]
  TEAD3 TAZ HTRF combined: Max % Inhibition: 61.0%
  EC50: 120 nM
[4]
  TEAD4 TAZ HTRF combined: Max % Inhibition: 44.5%
  EC50: 370 nM

## Cc1ccnc(-c2nn3c(=O)cc(-c4ccc(C5CCCCC5)cc4)[nH]c3c2C(=O)N2CC(CF)C2)n1 [Compound 9, 5-(4-Cyclohexylphenyl)-3-(3-(fluoromethyl)azetidine-1-carbonyl)-2-(4-methylpyrimidin-2-yl)pyrazolo[1,5-a]pyrimidin-7(4H)-one]
TEAD1 YAP50-100
  TEAD1 YAP50-100 HTRF combined: Max % Inhibition: 71.0%
  EC50: 30 nM
TEAD2 YAP50-100
  TEAD2 YAP50-100 HTRF combined: Max % Inhibition: 62.0%
  EC50: 10 nM
TEAD3 YAP50-100
  TEAD3 YAP50-100 HTRF combined: Max % Inhibition: 62.0%
  EC50: 80 nM
TEAD4 YAP50-100
  TEAD4 YAP50-100 HTRF combined: Max % Inhibition: 52.0%
  EC50: 30 nM
[1]
  TEAD1 TAZ HTRF combined: Max % Inhibition: 69.5%
  EC50: 40 nM
[2]
  TEAD2 TAZ HTRF combined: Max % Inhibition: 63.0%
  EC50: 10 nM
[3]
  TEAD3 TAZ HTRF combined: Max % Inhibition: 52.5%
  EC50: 90 nM
[4]
  TEAD4 TAZ HTRF combined: Max % Inhibition: 56.0%
  EC50: 30 nM

## CC(C)c1ccnc(-c2nn3c(=O)cc(-c4ccc(C5CCCCC5)cc4)[nH]c3c2C(=O)N2CC(CF)C2)n1 [Compound 10, 5-(4-Cyclohexylphenyl)-3-(3-(fluoromethyl)azetidine-1-carbonyl)-2-(4-isopropylpyrimidin-2-yl)pyrazolo[1,5-a]pyrimidin-7(4H)-one]
TEAD1 YAP50-100
  TEAD1 YAP50-100 HTRF combined: Max % Inhibition: 77.0%
  EC50: 60 nM
TEAD2 YAP50-100
  TEAD2 YAP50-100 HTRF combined: Max % Inhibition: 67.0%
  EC50: 10 nM
TEAD3 YAP50-100
  TEAD3 YAP50-100 HTRF combined: Max % Inhibition: 70.5%
  EC50: 120 nM
TEAD4 YAP50-100
  TEAD4 YAP50-100 HTRF combined: Max % Inhibition: 60.5%
  EC50: 670 nM
[1]
  TEAD1 TAZ HTRF combined: Max % Inhibition: 72.0%
  EC50: 60 nM
[2]
  TEAD2 TAZ HTRF combined: Max % Inhibition: 65.0%
  EC50: 10 nM
[3]
  TEAD3 TAZ HTRF combined: Max % Inhibition: 61.5%
  EC50: 140 nM
[4]
  TEAD4 TAZ HTRF combined: Max % Inhibition: 62.0%
  EC50: 540 nM

## O=C(c1c(-c2nccc(C(F)(F)F)n2)nn2c(=O)cc(-c3ccc(C4CCCCC4)cc3)[nH]c12)N1CC(CF)C1 [Compound 11, 5-(4-Cyclohexylphenyl)-3-(3-(fluoromethyl)azetidine-1-carbonyl)-2-(4-(trifluoromethyl)pyrimidin-2-yl)pyrazolo[1,5-a]pyrimidin-7(4H)-one]
TEAD1 YAP50-100
  TEAD1 YAP50-100 HTRF combined: Max % Inhibition: 74.0%
  EC50: 70 nM
TEAD2 YAP50-100
  TEAD2 YAP50-100 HTRF combined: Max % Inhibition: 63.5%
  EC50: 20 nM
TEAD3 YAP50-100
  TEAD3 YAP50-100 HTRF combined: Max % Inhibition: 68.5%
  EC50: 120 nM
TEAD4 YAP50-100
  TEAD4 YAP50-100 HTRF combined: Max % Inhibition: 48.0%
  EC50: 1050 nM
[1]
  TEAD1 TAZ HTRF combined: Max % Inhibition: 69.0%
  EC50: 70 nM
[2]
  TEAD2 TAZ HTRF combined: Max % Inhibition: 63.0%
  EC50: 20 nM
[3]
  TEAD3 TAZ HTRF combined: Max % Inhibition: 61.0%
  EC50: 120 nM
[4]
  TEAD4 TAZ HTRF combined: Max % Inhibition: 48.5%
  EC50: 860 nM

## CCc1ccnc(-c2nn3c(=O)cc(-c4ccc(C5CCCCC5)cc4)[nH]c3c2C(=O)N2CC(CF)C2)n1 [Compound 12, 5-(4-Cyclohexylphenyl)-2-(4-ethylpyrimidin-2-yl)-3-(3-(fluoromethyl)azetidine-1-carbonyl)pyrazolo[1,5-a]pyrimidin-7(4H)-one]
TEAD1 YAP50-100
  TEAD1 YAP50-100 HTRF combined: Max % Inhibition: 72.0%
  EC50: 140 nM
TEAD2 YAP50-100
  TEAD2 YAP50-100 HTRF combined: Max % Inhibition: 69.0%
  EC50: 20 nM
TEAD3 YAP50-100
  TEAD3 YAP50-100 HTRF combined: Max % Inhibition: 66.0%
  EC50: 190 nM
TEAD4 YAP50-100
  TEAD4 YAP50-100 HTRF combined: Max % Inhibition: 55.0%
  EC50: 200 nM
[1]
  TEAD1 TAZ HTRF combined: Max % Inhibition: 67.5%
  EC50: 110 nM
[2]
  TEAD2 TAZ HTRF combined: Max % Inhibition: 64.5%
  EC50: 20 nM
[3]
  TEAD3 TAZ HTRF combined: Max % Inhibition: 56.0%
  EC50: 240 nM
[4]
  TEAD4 TAZ HTRF combined: Max % Inhibition: 58.0%
  EC50: 180 nM
